# Data published in patent US10793527B2, “Adenosine monophosphate-activated protein kinase agonist” (NATIONAL YANG-MING UNIVERSITY, priority 2016, dated 2020).
# Assays:
# [1] = molecular target: T1, AMPKα1 immunoprecipitated protein extract (Homo sapiens, UniProt Q13131); assay: AMPK enzyme activity assay (SAMS peptide), AMPKα1 immunoprecipitated from PLC5 protein extract; format: biochemical; conditions: 20-20,000 nM compound; compared to the group without compound addition (FIG. 1A)
# T1 construct: AMPKα1 immunoprecipitated protein extract; endogenous in cells; host or cells: PLC5 liver cancer cells (immunoprecipitate on Protein A/G magnetic beads)
# Procedure: (§1) The protein extract of liver cancer cell PLC5 and the anti-AMPKα1 antibody were incubated in an immunoprecipitation buffer (G-Biosciences) overnight. Protein A/G Magnetic Beads (PureProteome™) are added to each sample respectively and incubated at 4° C. for 4 hours. In the case of the recombinant protein AMPK, 12.5 ng of the recombinant protein human AMPK (α1, β1, γ1) is incubated with various doses of the compound, and then AMPK activities are detected based on the manual of the SAMS peptide assay (Cyclex).
# (§2) It is shown by FIGS. 1A and 1B that the SCT-1015 compound can increase the activity of AMPK in liver cancer cells.
# [2] = molecular target: recombinant protein human AMPK (α1, β1, γ1) (Homo sapiens, UniProt Q13131); assay: AMPK enzyme activity assay (SAMS peptide), recombinant protein; format: biochemical; conditions: 20-2,000 nM compound; compared with the group without compound addition (FIG. 1B)
# Procedure: as §1, §2
# [3] = tested on: AMPK T172; assay: Detection of AMPK phosphorylation by ELISA assay in PLC5 cells; format: cell-based; conditions: PLC5 cultured with 10 μM compound for 24 hours, compared to control group
# Procedure: In this analysis, the commercial kit AMPK […] Phospho-ELISA Kit (KHO0651) produced by ThermoFisher Science is utilized. The hepatoma cell PLC5 is cultured with 10 μM of the compound for 24 hours, and the analysis is performed according to the manual, and the absorbance was detected at a wavelength of 450 nm.
# [4] = tested on: PLC/PRF/5 (PLC5) cells; assay: Cell viability of liver cancer cells (Prestoblue), PLC5; format: cell-based
# Procedure: (§3) Hepatoma cell Huh-7 was obtained from Health Science Research Resources Bank (HSRRB, Osaka. Japan; JCRB0403); Hepatoma cell PLC/PRF/5 (PLC5), Sk-Hep-1 and HCC1806 were obtained from the American Type Culture Collection (ATCC, Manassas, Va.). All cell lines are cultured immediately and frozen, so the frozen cells can be thawed every 3 months to allow experiments are conducted with the same batch of cells.
# (§4) Analysis is performed using a commercial kit Prestoblue assay produced by Thermo Fisher Scientific. Three liver cancer cell lines PLC/PRF/5, SK-hep1, and Huh-7 are cultured with compound SCT-1015 for 48 hours and 72 hours, respectively. […] The results support that the compound of the present invention can activate AMPK to inhibit the proliferation of liver cancer cells.
# [5] = tested on: phosphorylated AMPKα (p-AMPKα); assay: Detection of AMPK phosphorylation by immuno-blot assay; format: cell-based; conditions: PLC5, MDA-MB-231 and MDA-MB-453 cells; compared with the non-treated group (FIGS. 2A-2C)
# Procedure: (§5) The liver cancer cell PCL5 and the triple negative breast cancer cell (TNBC) MBA-MB-231 and MDA-MB-453 are cultured with the compound SCT-1015, respectively. The cells are collected, wash, and lysed by RIPA buffer to obtain a protein extract. The protein concentration was measured by Bio-Rad Protein Assay dye reagent (Bio-Rad). The protein samples are diluted with 2 times SDS-loading buffer (100 mM Tris HCl, pH 6.8, 200 mM β-mercaptoethanol, 4% SDS, 0.02% bromophenol blue, and 20% glycerol) to adjust volume, and electrophoresis is carried out using 10% SDS polyacrylamide gels and followed by transferring to PVDF membrane. The primary antibody is added to detect the target protein on the membrane, and then the secondary antibody with horseradish peroxidase is added, followed by addition of substrate (enhanced SuperSignal West Pico Cheminluminescent Substrate, Pierce) to obtain the signal of the specific protein. and the protein content is determined by β-actin. The β-actin is used as an internal control for protein amount.
# [6] = tested on: HIF1 and PDHK1; assay: Immuno-blot of downstream signaling molecules in liver cancer cell lines; format: cell-based; conditions: PLC/PRF/5, SK-hep1 and Huh-7 (FIG. 2D)
# Procedure: as §5
# [7] = tested on: SK-hep1 cells; assay: Cell viability of liver cancer cells (Prestoblue), SK-hep1; format: cell-based; conditions: 5-20 μM, 48 hours and 72 hours, compared with control (DMSO) (FIG. 3)
# Procedure: as §3, §4
# [8] = tested on: Huh-7 cells; assay: Cell viability of liver cancer cells (Prestoblue), Huh-7; format: cell-based; conditions: 5-20 μM, 48 hours and 72 hours, compared with control (DMSO) (FIG. 3)
# Procedure: as §3, §4
# [9] = tested on: HCC1806/luc2 cells; assay: In situ triple negative breast cancer mouse model (HCC1806/luc2-bearing orthotopic mice), IVIS; format: in vivo; conditions: 20 mg/kg, fed daily for 14 days (FIG. 4)
# Procedure: An in situ triple negative breast cancer mouse model (HCC1806/luc2-bearing orthotopic mice) is established with HCC1806 cells carrying the luciferase (luc2) gene. The experimental mice are divided into two groups, namely (1) control group: solvent; (2) experimental group: compound SCT-1015 (20 mg/kg), and the mice are fed daily for 14 days. On day 0 and day 14, the substrate of luciferase is injected into the peritoneal cavity of mice, and the luminescence from HCC1806/luc2 cells is detected by in vivo imaging system (IVIS) to monitor cell growth.
# The results support that the compound of the present invention can activate AMPK to inhibit the growth of triple-negative breast cancer cells.
# [10] = tested on: mature adipocytes; assay: Cell growth of adipocytes (adipoRed staining, cell imaging); format: cell-based, human
# Procedure: (§6) According to the standard procedure of adipocyte differentiation, human pre-adipocytes are treated with adipogenesis reagent (Gibco StemPro) for 14 days to induce differentiation into mature adipocytes. Next, mature adipocytes are treated with different concentrations of compound SCT-1015 (100 μM, 25 μM, 12.5 μM, 5 μM, and 2.5 μM), solvent only (Mock), or non-treated and cultivated for 48 hours. Then, the adipocytes are stained with adipoRed (Lonza inc.), and the cell number is evaluated by fluorescence signals measured at excited and emission wavelength are 485 nm and 572 nm, respectively. In addition, after the cells were treated with 2.5 μM. of the compound SCT-1015, the cell morphology was also observed through cell imaging.
# [11] = tested on: undifferentiated cells; assay: Morphology of undifferentiated cells in the adipocyte culture; format: cell-based; conditions: 2.5 μM (FIG. 5B)
# Procedure: as §6
# [12] = Treatment of diet-induced obesity (DIO) mice, body weight; format: in vivo; conditions: compared to the control group of mice (FIG. 6)
# Excerpt: The male mice C57BL/6 were purchased from the National Laboratory Animal Center (NLAC, Taipei, Taiwan) and fed high-fat-die for 4 weeks to establish the diet-induced obesity (DIO) mouse model for subsequent experiments
# Sequence of recombinant protein human AMPK (α1, β1, γ1) (Q13131 whole entry): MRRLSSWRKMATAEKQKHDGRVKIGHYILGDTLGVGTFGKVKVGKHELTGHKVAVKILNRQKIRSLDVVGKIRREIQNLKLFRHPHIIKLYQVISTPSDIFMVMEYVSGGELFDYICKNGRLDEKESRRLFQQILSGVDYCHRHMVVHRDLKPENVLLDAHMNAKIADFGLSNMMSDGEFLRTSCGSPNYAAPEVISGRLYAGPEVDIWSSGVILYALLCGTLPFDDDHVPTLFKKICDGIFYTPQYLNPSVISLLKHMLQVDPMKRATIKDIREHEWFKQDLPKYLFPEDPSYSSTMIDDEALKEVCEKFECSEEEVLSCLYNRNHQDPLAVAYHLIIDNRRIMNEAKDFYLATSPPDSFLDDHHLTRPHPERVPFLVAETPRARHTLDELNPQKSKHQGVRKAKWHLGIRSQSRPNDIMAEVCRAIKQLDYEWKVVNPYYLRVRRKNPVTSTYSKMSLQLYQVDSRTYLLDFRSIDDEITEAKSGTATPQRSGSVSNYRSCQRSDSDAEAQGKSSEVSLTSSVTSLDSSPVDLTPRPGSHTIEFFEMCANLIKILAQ
# Sequence of recombinant protein human AMPK (α1, β1, γ1) (Q9Y478 whole entry partner): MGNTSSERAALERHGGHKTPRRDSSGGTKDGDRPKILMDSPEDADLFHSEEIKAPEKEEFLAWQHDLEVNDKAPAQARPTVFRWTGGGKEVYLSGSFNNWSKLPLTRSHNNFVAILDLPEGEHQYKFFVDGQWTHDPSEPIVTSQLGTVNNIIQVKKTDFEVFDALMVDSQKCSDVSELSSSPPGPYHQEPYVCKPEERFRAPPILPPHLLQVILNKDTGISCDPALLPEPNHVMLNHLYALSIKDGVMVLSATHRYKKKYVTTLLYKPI
# Sequence of recombinant protein human AMPK (α1, β1, γ1) (P54619 whole entry partner): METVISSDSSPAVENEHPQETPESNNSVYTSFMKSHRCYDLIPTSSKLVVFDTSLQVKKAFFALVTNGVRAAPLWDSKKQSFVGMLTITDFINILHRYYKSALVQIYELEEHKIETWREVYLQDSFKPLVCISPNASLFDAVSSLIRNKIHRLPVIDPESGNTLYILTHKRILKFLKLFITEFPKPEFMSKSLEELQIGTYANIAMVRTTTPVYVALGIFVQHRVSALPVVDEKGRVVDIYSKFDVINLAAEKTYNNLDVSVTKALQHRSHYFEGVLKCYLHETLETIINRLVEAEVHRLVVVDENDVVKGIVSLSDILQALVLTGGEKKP
# T1 sequence (Q13131 whole entry): as the sequence (Q13131 whole entry) above
# T1 sequence (Q9Y478 2-270 partner limits assumed): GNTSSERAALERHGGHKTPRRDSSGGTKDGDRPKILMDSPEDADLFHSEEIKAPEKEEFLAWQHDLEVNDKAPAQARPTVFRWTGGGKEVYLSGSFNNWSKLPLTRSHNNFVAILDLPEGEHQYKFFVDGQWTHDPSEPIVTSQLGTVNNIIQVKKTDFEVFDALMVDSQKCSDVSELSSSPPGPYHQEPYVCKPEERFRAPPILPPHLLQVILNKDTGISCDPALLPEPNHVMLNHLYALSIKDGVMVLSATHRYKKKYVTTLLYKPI
# T1 sequence (P54619 whole entry partner): as the sequence (P54619 whole entry partner) above
compound,measurement,setting,value
"O=C(Nc1cccc(Nc2nccc(-c3ccc[nH]3)n2)c1)Nc1ccc(Cl)c(C(F)(F)F)c1 [SCT-1015, 1-(3-((4-(1H-pyrrol-2-yl)pyrimidin-2-yl)amino)phenyl)-3-(4-chloro-3-(trifluoromethyl)phenyl)urea]",AMPK activity,[1],significant increase
same,activity of the recombinant protein AMPKα1/β1/γ1,[2],significant increase
same,AMPK T172 activity,[3],1.8 fold
same,IC50,"[4]; PLC5 cells, 48 hr",12.1 µM
same,cell proliferation,"[4]; PLC/PRF/5, 5-20 μM, 48 hours and 72 hours, compared with control (DMSO) (FIG. 3)",inhibit the cell proliferation significantly
same,expression of phosphorylated AMPKα (p-AMPKα),[5],significantly increased
same,regulation of downstream signaling molecules HIF1 and PDHK1,[6],regulates the downstream signaling molecules HIF1 and PDHK1
same,cell proliferation,[7],inhibit the cell proliferation significantly
same,cell proliferation,[8],inhibit the cell proliferation significantly
same,number of HCC1806/luc2 cell on day 14 compared to control group,[9],significantly less
same,number of HCC1806/luc2 cell on day 14 compared to day 0,[9],does not show noteworthy increase
same,cell morphology of mature adipocytes,[10]; 2.5 μM (FIG. 5B),shrinkage and death
same,number of the mature adipocytes,"[10]; 2.5-100 μM, 48 hours, compared to control (Mock), dose-dependent (FIG. 5A)",significantly decreased
same,cell morphology of undifferentiated cells,[11],maintain a healthy cell morphology
same,body weight lost,[12],5%
